The values that follow come from patent US8431583B2, “Use of purine derivatives for the manufacture of a medicament” (Centre National de la Recherche Scientifique, priority 2007, dated 2013).

Series [1] addresses T1, CDK9/cyclin T (Homo sapiens, UniProt P50750).
T1 construct: host or cells: insect cells
As to the kind of experiment: Kinase assay CDK9/cyclin T. It is filed as biochemical. The conditions noted are these: 15 μM ATP, 30° C., pRB fragment substrate. As for the experimental part: (§1) Assaying is carried out with 1 mg histone H1/ml, in the presence of 15 μm [γ-^33P]ATP (3000 Ci/mmol; 10 mCi/ml) in a final volume of 30 μl. After incubating at 30° C. for 30 min, 25 μl aliquots of supernatant were deposited on 2.5×3 cm pieces of Whatman P8 phosphocellulose papers and then, 20 sec. later, the filters were washed 5 times in a solution of 10 ml of phosphoric acid/liter. The filters are subsequently counted in the presence of 1 ml of ACS (Amersham).
(§2) The mean inhibitory concentration IC50 values were calculated from the dose/response curves and are listed in μM in the following table I.

In series [2] the target is T2, DYRK1A (Homo sapiens, UniProt Q13627).
T2 construct: host or cells: E. coli
In words: Kinase assay DYRK1A. Type of series: biochemical. The conditions noted are these: 15 μM ATP, 30° C. As to the method:
as §1
DYRK1A (human, recombinant, expressed in E. coli cells) is assayed like CDK1/cyclin B.
as §2

Series [3] deals with Erk2 (Homo sapiens, UniProt P28482). As to the kind of experiment: Kinase assay Erk2. It is filed as biochemical. Particulars: 15 μM ATP, 30° C. As for the experimental part:
as §2

The test system of series [4] is B2 lymphocytes originating from patients. In words: Induction of cell death of B chronic lymphoid leukemia cells (B2 lymphocytes) from patients. It is filed as cell-based, human. The conditions noted are these: B2 lymphocytes from CLL patients, MTS reduction / LDH release. As for the experimental part:
The B2 lymphocytes are lymphocytes involved in […] chronic lymphoid leukemia.
Cell viability is determined by the reduction of 3-(4,5-dimethylthiazol-2-yl)-5-(3-carboxymethoxyphenyl)-2-(4-sulfophenyl)-2H-tetrazolium (MTS).
Cell death is determined by the measurement of the level of the activity of the lactate dehydrogenase (LDH) released during lysis of the cells. The two processes are described in detail in “Ribas J. and Boix J. Cell differentiation, caspase inhibition, and macromolecular synthesis blockage, but not BCL-2 or BCL-XL proteins protect SH-SY5Y cells from apoptosis triggered by two CDK inhibitory drugs.
In table 2, the values shown are the mean inhibitory concentration IC50 values, expressed in μM.

For series [5], the target named is CK1δ/e. As to the kind of experiment: Kinase assay CK1. Particulars: read-out: IC50 CK1; 15 μM ATP, 30° C., buffer A.
For series [6], the target named is GSK-3 α/β. As to the kind of experiment: Kinase assay GSK-3α/β. It is filed as biochemical, pig. Particulars: 15 μM ATP, 30° C., buffer A, GS-1 substrate. As for the experimental part:
After incubating at 30° C. for 30 min, 25 μl aliquots of supernatant were deposited on 2.5×3 cm pieces of Whatman P8 phosphocellulose papers and then, 20 sec. later, the filters were washed 5 times in a solution of 10 ml of phosphoric acid/liter. The filters are subsequently counted in the presence of 1 ml of ACS (Amersham).
as §2

A short description of series [7]: Solubility in water. It is filed as physicochemical.
Series [8] concerns B-CLL. The conditions noted are these: B-CLL patients; cited from earlier work.

T1 sequence (P50750 whole entry): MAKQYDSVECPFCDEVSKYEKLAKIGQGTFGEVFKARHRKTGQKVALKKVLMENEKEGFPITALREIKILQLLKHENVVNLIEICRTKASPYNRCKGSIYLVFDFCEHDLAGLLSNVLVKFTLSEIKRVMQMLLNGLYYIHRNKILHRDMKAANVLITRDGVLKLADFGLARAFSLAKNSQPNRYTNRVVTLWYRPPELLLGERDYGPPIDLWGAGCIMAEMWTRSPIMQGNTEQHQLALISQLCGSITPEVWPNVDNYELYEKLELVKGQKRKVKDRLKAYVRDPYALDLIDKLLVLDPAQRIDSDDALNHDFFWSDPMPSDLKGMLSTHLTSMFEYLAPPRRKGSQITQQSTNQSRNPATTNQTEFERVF
T1 sequence (O60563 whole entry partner): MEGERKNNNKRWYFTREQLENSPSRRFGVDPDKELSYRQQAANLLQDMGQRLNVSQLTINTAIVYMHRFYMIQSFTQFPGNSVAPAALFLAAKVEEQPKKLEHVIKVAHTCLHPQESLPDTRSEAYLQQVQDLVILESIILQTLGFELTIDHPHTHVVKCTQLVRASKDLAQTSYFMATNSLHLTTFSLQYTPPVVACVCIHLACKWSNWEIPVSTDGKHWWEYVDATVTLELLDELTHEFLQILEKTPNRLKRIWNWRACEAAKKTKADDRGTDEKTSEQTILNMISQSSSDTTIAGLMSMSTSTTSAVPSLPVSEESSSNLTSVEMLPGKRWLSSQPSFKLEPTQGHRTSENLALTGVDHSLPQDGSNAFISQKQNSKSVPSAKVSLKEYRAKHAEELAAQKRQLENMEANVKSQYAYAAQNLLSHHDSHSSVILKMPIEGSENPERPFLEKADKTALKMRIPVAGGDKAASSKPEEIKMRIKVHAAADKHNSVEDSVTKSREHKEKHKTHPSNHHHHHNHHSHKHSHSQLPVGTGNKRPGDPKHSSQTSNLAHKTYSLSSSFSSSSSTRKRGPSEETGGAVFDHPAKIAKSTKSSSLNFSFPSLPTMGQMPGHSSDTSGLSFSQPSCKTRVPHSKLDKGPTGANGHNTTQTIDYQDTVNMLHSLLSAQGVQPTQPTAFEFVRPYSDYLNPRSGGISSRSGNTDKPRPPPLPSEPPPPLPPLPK
Sequence of Erk2 (P28482 whole entry, species assumed): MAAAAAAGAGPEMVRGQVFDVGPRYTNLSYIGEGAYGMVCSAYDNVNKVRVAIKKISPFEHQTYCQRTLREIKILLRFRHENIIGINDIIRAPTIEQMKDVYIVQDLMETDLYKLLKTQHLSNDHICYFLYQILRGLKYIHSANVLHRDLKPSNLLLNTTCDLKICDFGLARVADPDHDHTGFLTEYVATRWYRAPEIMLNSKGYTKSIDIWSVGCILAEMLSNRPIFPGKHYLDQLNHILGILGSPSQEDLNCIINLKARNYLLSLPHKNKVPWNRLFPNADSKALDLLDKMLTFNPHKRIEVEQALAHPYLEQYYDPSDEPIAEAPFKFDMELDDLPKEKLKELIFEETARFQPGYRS

With `CC[C@H](CO)Nc1nc(NCc2ccc(-c3ccccn3)cc2)c2ncn(C(C)C)c2n1` [Compound of formula Ia], the IC50 in series [1] is 180 nM; in series [2], 3600 nM; in series [3], 3600 nM; in series [4] (Homo sapiens, Lymphocyte), 200 nM; in series [5], 400 nM.

Turning to `CC[C@@H](CO)Nc1nc(NCc2ccc(-c3ccccn3)cc2)c2ncn(C(C)C)c2n1` [Compound of formula Ib], the IC50 is 110 nM in series [1]; 900 nM in series [2]; 2100 nM in series [3]; at least 30000 nM in series [6]; 90 nM in series [4] (Homo sapiens, Lymphocyte); 610 nM in series [5]. Moreover, in series [7], the solubility was determined as 3.3 µg/mL.

In series [4] (Homo sapiens, Lymphocyte), `CCC(CO)Nc1nc(NCc2ccc(-c3ccccc3)cc2)c2ncn(C(C)C)c2n1` (stereo not drawn) [Compound of formula Ic] came in with an IC50 of 1250 nM. Moreover, the solubility in series [7] stood at 0.5 µg/mL.

In series [4] (Homo sapiens, Lymphocyte), `CC(C)n1cnc2c(NCc3ccc(-c4ccccn4)cc3)nc(NC(CO)CO)nc21` [Compound of formula Id, 2-(1,3-Dihydroxyprop-2-ylamino)-6-[4-(2-pyridyl)phenylmethylamino]-9-isopropylpurine] registered a half-inhibitory concentration (IC50) of 250 nM.

For `CC(C)[C@H](CO)Nc1nc(NCc2ccc(-c3ccccn3)cc2)c2ncn(C(C)C)c2n1` [Compound of formula Ie], 510 nM corresponded to half-maximal inhibition in series [4] (Homo sapiens, Lymphocyte) (IC50).

For the compound `CC(C)[C@H](CO)Nc1nc(NCc2ccc(-c3ccccn3)cc2)c2ncn(C(C)C)c2n1` [Compound of formula If], the concentration for half-maximal inhibition (IC50) in series [4] is 380 nM.

Consider “alemtuzumab: therapeutic antibody against an antigen expressed on leukocytes and leukemic B lymphocytes of CLL”, for which the hematologic response in series [8] is 33%.
